Test results from patent publication US9351989B2, “Substituted purine nucleosides, phosphoroamidate and phosphorodiamidate derivatives for treatment of viral infections” (INHIBITEX, INC., priority 2010, dated 2016).

Key:
[1] = system: HCV replicon (Genotype 1b); assay: Luciferase genotype 1b replicon potency assay; format: cell-based; settings: Hepatitis C virus, Huh-7; luciferase-reporter genotype 1b subgenomic replicon cell line (Huh7); Renilla luciferase reporter activity
Experimental: (§1) Further to the above Examples, representative compounds, prepared according to the examples were tested for potency in an HCV replicon assay (Genotype 1b) for activity against the virus (EC50) and toxicity to the cells (CC50).
Huh7 Replicon Cell Lines and Cell Culture Conditions:
(§2) A luciferase-reporter genotype 1b subgenomic replicon cell line, and a genotype 1a full-length replicon cell line were obtained from Apath, LLC, Brooklyn, N.Y.: All cell lines were passaged twice a week by splitting 4 or 6 fold. Cells were maintained in DMEM-high glucose medium (HyClone, Logan, Utah) supplemented with 9% FBS (HyClone), 2 mM glutamine (Invitrogen, Carlsbad, Calif.), 100 U/mL PenStrep (Invitrogen). Media also contained 0.25 mg/mL of the antibiotic G-418 to maintain stable expression of the replicon (Invitrogen). Incubation was performed at 37° C. in 5% CO2 atmosphere. Replicon cell lines were used until they accumulated 15-to-18 passages, after which cells were restarted from the frozen stock. Seeding cell counts were routinely determined using an automatic Cedex HiRes cell counter (Flownomics Analytical Instruments, Madison, Wis.) or manually using INCYTO C—Chip™ Disposable Hemacytometers (Fisher Scientific, Pittsburgh, Pa.).
The anti-HCV assays were done accordingly:
Luciferase Genotype 1b Replicon Potency Assay.
Replicon cells were seeded into white 96-well plates (Nunc/VWR) at a density of 2×10^4 cells/well in medium without G-418. A Stacker Multidrop Liquid Dispenser (MTX Lab Systems, Vienna, Va.) was employed to ensure uniform and fast cell seeding into multiple plates. 18-24 h after cell plating, inhibitors were added and cells were incubated for additional 24, 48, or 72 h (as indicated). Compounds were tested in triplicates and quadruplicates at 3× or 4× serial dilutions over a range of 0.0001-to-10 μM concentrations. HCV replication was monitored by Renilla luciferase reporter activity assay using Renilla luciferase reporter (Promega, Madison, Wis.) and a Veritas Luminometer (Turner Biosystems, Sunnyvale, Calif.). 50% and 90% inhibitory concentration (IC50 and IC90) values were calculated as the concentration of compound that results correspondingly in 50% and 90% decreases in the reporter expression as compared to untreated cells. The values were determined by non-linear regression (four-parameter sigmoidal curve fitting) analysis.

[2] = Cytotoxicity assay (CellTiter-Glo); format: cell-based; settings: human, toxicity to the cells, 72 h incubation, CellTiter-Glo cell viability
Experimental: as §1, §2
The cell cytotoxicity assay data was obtained as described below:
Cells were seeded into 96-well plates at a density of 2×10^4 cells per well. 24 h after cell plating, 11 serial 2× compound dilutions, starting with 100 μM, were applied to the testing plates (3 repeats per compound dilution). Each testing plate was run with a “no-compound” control. Incubation with compounds was continued at 37° C. in a CO2 incubator for 72 h. To determine cell viability, the CellTiter-Glo® assay (Promega, Madison, Wis.) was performed according to the manufacturer's protocol. The compound concentration resulting in 50% luminescent signal was reported as the CC50 concentration.

[3] = Huh7 HCV genotype 1b replicon cells

SMILES	IC50 [1]	CC50 at 72 h [2]	CC50 at 72 h [2, 3]
COc1nc(N)nc2c1nc(I)n2[C@@H]1O[C@H](COP(=O)(N[C@@H](C)C(=O)OC2CCC2)Oc2cccc3ccccc23)[C@@H](O)[C@@]1(C)O (stereo partly drawn) [Example 15, (2S)-Cyclobutyl 2-((((2R,3R,4R,5R)-5-(2-Amino-8-iodo-6-methoxy-9H-purin-9-yl)-3,4-dihydroxy-4-methyltetrahydrofuran-2-yl)methoxy)(naphthalen-1-yloxy)phosphorylamino)propanoate]	0.01 µM	6.8 µM	
CCCOC(=O)[C@H](C)NP(=O)(OC[C@H]1O[C@@H](n2c(I)nc3c(OC)nc(N)nc32)[C@](C)(O)[C@@H]1O)Oc1cccc2ccccc12 (stereo partly drawn) [Example 9, (2S)-Propyl 2-((((2R,3R,4R,5R)-5-(2-Amino-8-iodo-6-methoxy-9H-purin-9-yl)-3,4-dihydroxy-4-methyltetrahydrofuran-2-yl)methoxy)(naphthalen-1-yloxy)phosphorylamino)propanoate]	0.009 µM	6 µM	
COc1nc(N)nc2c1nc(I)n2[C@@H]1O[C@H](COP(=O)(N[C@@H](CCSC)C(=O)OCc2ccccc2)Oc2cccc3ccccc23)[C@@H](O)[C@@]1(C)O (stereo partly drawn) [Example 19, (2S)-Benzyl 2-((((2R,3R,4R,5R)-5-(2-Amino-8-iodo-6-methoxy-9H-purin-9-yl)-3,4-dihydroxy-4-methyltetrahydrofuran-2-yl)methoxy)(naphthalen-1-yloxy)phosphorylamino)-4-(methylthio)butanoate]	0.034 µM	29 µM	
COc1nc(N)nc2c1nc(I)n2[C@@H]1O[C@H](COP(=O)(N[C@@H](C)C(=O)OC2CCOCC2)Oc2cccc3ccccc23)[C@@H](O)[C@@]1(C)O (stereo partly drawn) [Example 18, (2S)-Tetrahydro-2H-pyran-4-yl 2-((((2R,3R,4R,5R)-5-(2-Amino-8-iodo-6-methoxy-9H-purin-9-yl)-3,4-dihydroxy-4-methyltetrahydrofuran-2-yl)methoxy)(naphthalen-1-yloxy)phosphorylamino)propanoate]	0.018 µM	26 µM	
CCCCCOC(=O)[C@H](C)NP(=O)(OC[C@H]1O[C@@H](n2c(I)nc3c(OC)nc(N)nc32)[C@](C)(O)[C@@H]1O)Oc1cccc2ccccc12 (stereo partly drawn) [Example 11, (2S)-Pentyl 2-((((2R,3R,4R,5R)-5-(2-Amino-8-iodo-6-methoxy-9H-purin-9-yl)-3,4-dihydroxy-4-methyltetrahydrofuran-2-yl)methoxy)(naphthalen-1-yloxy)phosphorylamino)propanoate]	0.012 µM	11 µM	
COc1nc(N)nc2c1nc(I)n2[C@@H]1O[C@H](COP(=O)(N[C@@H](C)C(=O)OCc2ccc(F)cc2F)Oc2cccc3ccccc23)[C@@H](O)[C@@]1(C)O (stereo partly drawn) [Example 8, (2S)-2,4-Difluorobenzyl 2-((((2R,3R,4R,5R)-5-(2-Amino-8-iodo-6-methoxy-9H-purin-9-yl)-3,4-dihydroxy-4-methyltetrahydrofuran-2-yl)methoxy)(naphthalen-1-yloxy)phosphorylamino)propanoate]	0.009 µM	8.1 µM	
COc1nc(N)nc2c1nc(I)n2[C@@H]1O[C@H](COP(=O)(N[C@@H](C)C(=O)OCC(C)(C)C)Oc2cccc3ccccc23)[C@@H](O)[C@@]1(C)O (stereo partly drawn) [Example 12, (2S)-Neopentyl 2-((((2R,3R,4R,5R)-5-(2-Amino-8-iodo-6-methoxy-9H-purin-9-yl)-3,4-dihydroxy-4-methyltetrahydrofuran-2-yl)methoxy)(naphthalen-1-yloxy)phosphorylamino)propanoate]	0.02 µM	14 µM	
COc1nc(N)nc2c1nc(I)n2[C@@H]1O[C@H](COP(=O)(N[C@@H](C)C(=O)OC2CCCCC2)Oc2cccc3ccccc23)[C@@H](O)[C@@]1(C)O (stereo partly drawn) [Example 17, (2S)-Cyclohexyl 2-((((2R,3R,4R,5R)-5-(2-Amino-8-iodo-6-methoxy-9H-purin-9-yl)-3,4-dihydroxy-4-methyltetrahydrofuran-2-yl)methoxy)(naphthalen-1-yloxy)phosphorylamino)propanoate]	0.016 µM	11 µM	
COc1nc(N)nc2c1nc(Cl)n2[C@@H]1O[C@H](COP(=O)(N[C@@H](C)C(=O)OCC(C)(C)C)N[C@@H](C)C(=O)OCC(C)(C)C)[C@@H](O)[C@@]1(C)O [Example 25, (2S,2′S)-Neopentyl 2,2′-((((2R,3R,4R,5R)-5-(2-Amino-8-chloro-6-methoxy-9H-purin-9-yl)-3,4-dihydroxy-4-methyltetrahydrofuran-2-yl)methoxy)phosphoryl)bis(azanediyl)dipropanoate]	10 µM		> 100 µM
COc1nc(N)nc2c1nc(I)n2[C@@H]1O[C@H](COP(=O)(N[C@@H](C)C(=O)OCCC(C)(C)C)N[C@@H](C)C(=O)OCCC(C)(C)C)[C@@H](O)[C@@]1(C)O [Example 22, (2S,2′S)-Bis(3,3-Dimethylbutyl) 2,2′-((((2R,3R,4R,5R)-5-(2-Amino-8-iodo-6-methoxy-9H-purin-9-yl)-3,4-dihydroxy-4-methyltetrahydrofuran-2-yl)methoxy)phosphoryl)bis(azanediyl)dipropanoate]	0.072 µM		11 µM
COc1nc(N)nc2c1nc(I)n2[C@@H]1O[C@H](COP(=O)(N[C@@H](C)C(=O)OCc2ccccc2)Oc2cccc3ccccc23)[C@@H](O)[C@@]1(C)O (some centres unmarked) [Example 7]	0.031 µM	18 µM	
COc1nc(N)nc2c1nc(Br)n2[C@@H]1O[C@H](CO)[C@@H](O)[C@@]1(C)O [Example 5, (2R,3R,4R,5R)-2-(2-Amino-8-bromo-6-methoxy-9H-purin-9-yl)-5-(hydroxymethyl)-3-methyltetrahydrofuran-3,4-diol]	> 100 µM		> 100 µM
COc1nc(N)nc2c1nc(I)n2[C@@H]1O[C@H](COP(=O)(N[C@@H](C)C(=O)OCc2ccccc2)N[C@@H](C)C(=O)OCc2ccccc2)[C@@H](O)[C@@]1(C)O [Example 21, (2S,2′S)-Benzyl 2,2′-((((2R,3R,4R,5R)-5-(2-Amino-8-iodo-6-methoxy-9H-purin-9-yl)-3,4-dihydroxy-4-methyltetrahydrofuran-2-yl)methoxy)phosphoryl)bis(azanediyl)dipropanoate]	0.046 µM		22 µM
COc1nc(N)nc2c1nc(I)n2[C@@H]1O[C@H](CO)[C@@H](O)[C@@]1(C)O [Example 3, (2R,3R,4R,5R)-2-(2-Amino-8-iodo-6-methoxy-9H-purin-9-yl)-5-(hydroxymethyl)-3-methyltetrahydrofuran-3,4-diol]	6.1 µM		> 100 µM
COc1nc(N)nc2c1nc(I)n2[C@@H]1O[C@H](COP(=O)(N[C@@H](C)C(=O)OC2CCCCC2)N[C@@H](C)C(=O)OC2CCCCC2)[C@@H](O)[C@@]1(C)O [Example 26, (2S,2′S)-Dicyclohexyl 2,2′-((((2R,3R,4R,5R)-5-(2-Amino-8-iodo-6-methoxy-9H-purin-9-yl)-3,4-dihydroxy-4-methyltetrahydrofuran-2-yl)methoxy)phosphoryl)bis(azanediyl)dipropanoate]	0.13 µM		54 µM
COc1nc(N)nc2c1nc(Br)n2[C@@H]1O[C@H](COP(=O)(N[C@@H](C)C(=O)OCC(C)(C)C)N[C@@H](C)C(=O)OCC(C)(C)C)[C@@H](O)[C@@]1(C)O [Example 24, (2S,2′S)-Neopentyl 2,2′-((((2R,3R,4R,5R)-5-(2-Amino-8-bromo-6-methoxy-9H-purin-9-yl)-3,4-dihydroxy-4-methyltetrahydrofuran-2-yl)methoxy)phosphoryl)bis(azanediyl)dipropanoate]	> 40 µM		> 100 µM
